In paper PMC10046961, “High-Throughput Screening Assay for Detecting Drug-Induced Changes in Synchronized Neuronal Oscillations and Potential Seizure Risk Based on Ca^2+ Fluorescence Measurements in Human Induced Pluripotent Stem Cell (hiPSC)-Derived Neuronal 2D and 3D Cultures” (Cells, 2023):
Where two headings read alike, the source gives them in different places. Marks after values point to notes of the source that are not given here.

Assays:
[1] = test system: hiPSC-derived neurons co-cultured with human primary astrocytes in 3D; test: Ca2+ transient oscillation assay (FDSS), 3D spheroids; type: cell-based; details: 60 min
Procedure, shortened: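 Fura-2 fluorescence was read twice for 20 min each: a baseline 10 min after 0.04% DMSO, and again 60 min after compound addition at nominal final concentration. The 3D co-cultures (1:1 hiPSC neurons from a donor and human astrocytes, 8000 each) matured 5 weeks in BrainPhys medium after a 1-week differentiation.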

[2] = test system: hiPSC-derived neurons co-cultured with human primary astrocytes in 2D; test: Ca2+ transient oscillation assay (FDSS), 2D co-culture; type: cell-based; details: for effect on peak number / Ca2+ neuronal oscillations, in words: 2D format; for activation at 0.04 µM / activation at 0.11 µM / activation at 0.33 µM / activation at 1 µM / activation at 3.7 µM / activation at 11.11 µM / activation at 33.33 µM / activation at 100 µM / activation at 300 µM: Homo sapiens, 1 h, 60 min
Procedure, shortened: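 hiPSC-derived excitatory neurons (CW50065, Quick-Neuron EX-SeV) co-cultured with human primary astrocytes at 4:1 (10,000:2500 cells per well). Cal-520-loaded cells in HBSS with 2 mM CaCl2 and 10 mM HEPES were pretreated with 0.04% DMSO.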

[3] = ref PharmaPendium, cited from earlier work
[4] = read-out: Area under the curve - 2D Mean
[5] = read-out: Peak amplitude - 2D Mean
[6] = read-out: Peak-to-peak interval - 2D Mean
[7] = Table 1, peak plasma concentration in men, free therapeutic Cmax
[8] = Table 2, highest plasma concentration in humans after the therapeutic dose

With `CN1CCN(C2=Nc3cc(Cl)ccc3Nc3ccccc32)CC1` [Clozapine] the “Area under the curve - 3D Mean” value ([1]; 0.04 µM) was 150.1 % change from baseline, the “Peak Number—3D Mean” value ([1]; 0.04 µM) was 11.1 % change from baseline and the “Peak amplitude - 3D Mean” value ([1]; 0.04 µM) was 133.6 % change from baseline. For the same molecule, the “Peak width - 3D Mean” value ([1]; 0.04 µM) was 6.2 % change from baseline, the “Peak-to-peak interval - 3D Mean” value ([1]; 0.04 µM) was 4.5 % change from baseline and the “Area under the curve - 3D Mean” value ([1]; 0.11 µM) was 153.9 % change from baseline. For the same molecule, the “Peak Number—3D Mean” value ([1]; 0.11 µM) was −10.0 % change from baseline, the “Peak amplitude - 3D Mean” value ([1]; 0.11 µM) was 130.9 % change from baseline and the “Peak width - 3D Mean” value ([1]; 0.11 µM) was 8.6 % change from baseline. For the same molecule, the “Peak-to-peak interval - 3D Mean” value ([1]; 0.11 µM) was 19.2 % change from baseline, the “Area under the curve - 3D Mean” value ([1]; 0.33 µM) was 163.3 % change from baseline and the “Peak Number—3D Mean” value ([1]; 0.33 µM) was −2.8 % change from baseline. For the same molecule, the “Peak amplitude - 3D Mean” value ([1]; 0.33 µM) was 129.8 % change from baseline, the “Peak width - 3D Mean” value ([1]; 0.33 µM) was 14.0 % change from baseline and the “Peak-to-peak interval - 3D Mean” value ([1]; 0.33 µM) was 5.6 % change from baseline. The “Area under the curve - 3D Mean” value ([1]; 1 µM) was 182.8 % change from baseline, the “Peak Number—3D Mean” value ([1]; 1 µM) was −13.9 % change from baseline and the “Peak amplitude - 3D Mean” value ([1]; 1 µM) was 129.4 % change from baseline. For the same molecule, the “Peak width - 3D Mean” value ([1]; 1 µM) was 22.6 % change from baseline, the “Peak-to-peak interval - 3D Mean” value ([1]; 1 µM) was 14.2 % change from baseline and the “effect on peak number / Ca2+ neuronal oscillations, in words” value [2] was “significantly increased peak number”. The activation at 0.04 µM [2, 4] was 28.5%, the activation at 0.04 µM ([2]; read-out: Peak Number—2D Mean) was 15.3% and the activation at 0.04 µM [2, 5] was 12.5%. It also gave an activation at 0.04 µM ([2]; read-out: Peak width - 2D Mean) of 20.8%, an activation at 0.04 µM [2, 6] of 1.2% and an activation at 0.11 µM [2, 4] of 49%. The activation at 0.11 µM ([2]; read-out: Peak Number—2D Mean) was 24.2%, the activation at 0.11 µM [2, 5] was 16.7% and the activation at 0.11 µM ([2]; read-out: Peak width - 2D Mean) was 35.5%. It also gave an activation at 0.11 µM [2, 6] of -15.5%, an activation at 0.33 µM [2, 4] of 28.8% and an activation at 0.33 µM ([2]; read-out: Peak Number—2D Mean) of -15%. It also gave an activation at 0.33 µM [2, 5] of 9.4%, an activation at 0.33 µM ([2]; read-out: Peak width - 2D Mean) of 22.8% and an activation at 0.33 µM [2, 6] of 82%. The activation at 1 µM [2, 4] was 10.8%, the activation at 1 µM ([2]; read-out: Peak Number—2D Mean) was -8.3% and the activation at 1 µM [2, 5] was 1%. The activation at 1 µM ([2]; read-out: Peak width - 2D Mean) was 11%, the activation at 1 µM [2, 6] was 2.7% and the “Free Cmax” value [3, 7] was 300 nM. The “Free Cmax” value [3, 8] was 300 nM.

In the case of `O=C1NC(=O)C(c2ccccc2)(c2ccccc2)N1` [Phenytoin], the “Area under the curve - 3D Mean” value ([1]; 3.7 µM) is reported as 132.1 % change from baseline, the “Peak Number—3D Mean” value ([1]; 3.7 µM) is reported as 1.4 % change from baseline and the “Peak amplitude - 3D Mean” value ([1]; 3.7 µM) is reported as 111.5 % change from baseline. The “Peak width - 3D Mean” value ([1]; 3.7 µM) was 7.4 % change from baseline, the “Peak-to-peak interval - 3D Mean” value ([1]; 3.7 µM) was 2.9 % change from baseline and the “Area under the curve - 3D Mean” value ([1]; 11.11 µM) was 177.0 % change from baseline. For the same molecule, the “Peak Number—3D Mean” value ([1]; 11.11 µM) was −11.8 % change from baseline, the “Peak amplitude - 3D Mean” value ([1]; 11.11 µM) was 110.4 % change from baseline and the “Peak width - 3D Mean” value ([1]; 11.11 µM) was 29.4 % change from baseline. For the same molecule, the “Peak-to-peak interval - 3D Mean” value ([1]; 11.11 µM) was 8.2 % change from baseline, the “Area under the curve - 3D Mean” value ([1]; 33.33 µM) was 199.3 % change from baseline and the “Peak Number—3D Mean” value ([1]; 33.33 µM) was −14.6 % change from baseline. For the same molecule, the “Peak amplitude - 3D Mean” value ([1]; 33.33 µM) was 91.2 % change from baseline, the “Peak width - 3D Mean” value ([1]; 33.33 µM) was 47.9 % change from baseline and the “Peak-to-peak interval - 3D Mean” value ([1]; 33.33 µM) was 17.7 % change from baseline. The “Area under the curve - 3D Mean” value ([1]; 100 µM) was 198.2 % change from baseline, the “Peak Number—3D Mean” value ([1]; 100 µM) was −9.9 % change from baseline and the “Peak amplitude - 3D Mean” value ([1]; 100 µM) was 88.4 % change from baseline. For the same molecule, the “Peak width - 3D Mean” value ([1]; 100 µM) was 50.5 % change from baseline, the “Peak-to-peak interval - 3D Mean” value ([1]; 100 µM) was 6.6 % change from baseline and the “effect on peak number / Ca2+ neuronal oscillations, in words” value [2] was “significantly reduced peak number”. It also gave an activation at 3.7 µM [2, 4] of 33.2%, an activation at 3.7 µM ([2]; read-out: Peak Number—2D Mean) of -33.5% and an activation at 3.7 µM [2, 5] of 7.3%. The activation at 3.7 µM ([2]; read-out: Peak width - 2D Mean) was 27.2%, the activation at 3.7 µM [2, 6] was 46.3% and the activation at 11.11 µM [2, 4] was 27.5%. It also gave an activation at 11.11 µM ([2]; read-out: Peak Number—2D Mean) of -15.2%, an activation at 11.11 µM [2, 5] of -0.2% and an activation at 11.11 µM ([2]; read-out: Peak width - 2D Mean) of 31.5%. It also gave an activation at 11.11 µM [2, 6] of 22.2%, an activation at 33.33 µM [2, 4] of 15.8% and an activation at 33.33 µM ([2]; read-out: Peak Number—2D Mean) of -51.2%. It also gave an activation at 33.33 µM [2, 5] of -3%, an activation at 33.33 µM ([2]; read-out: Peak width - 2D Mean) of 17% and an activation at 33.33 µM [2, 6] of 89%. It also gave an activation at 100 µM [2, 4] of 33.3%, an activation at 100 µM ([2]; read-out: Peak Number—2D Mean) of -27.5% and an activation at 100 µM [2, 5] of 0.2%. The activation at 100 µM ([2]; read-out: Peak width - 2D Mean) was 34.7%, the activation at 100 µM [2, 6] was 44.5% and the “Free Cmax” value [3, 7] was 4000 to 15000 nM. The “Free Cmax” value [3, 8] was 4000 to 15000 nM.

For `CC(=O)OCC[N+](C)(C)C` [Acetylcholine], the “Area under the curve - 3D Mean” value ([1]; 11.11 µM) was 109.9 % change from baseline, the “Peak Number—3D Mean” value ([1]; 11.11 µM) was −33.8 % change from baseline and the “Peak amplitude - 3D Mean” value ([1]; 11.11 µM) was 90.9 % change from baseline. The “Peak width - 3D Mean” value ([1]; 11.11 µM) was 4.2 % change from baseline, the “Peak-to-peak interval - 3D Mean” value ([1]; 11.11 µM) was 89.6 % change from baseline and the “Area under the curve - 3D Mean” value ([1]; 33.33 µM) was 110.9 % change from baseline. The “Peak Number—3D Mean” value ([1]; 33.33 µM) was −51.6 * % change from baseline, the “Peak amplitude - 3D Mean” value ([1]; 33.33 µM) was 105.2 % change from baseline and the “Peak width - 3D Mean” value ([1]; 33.33 µM) was 0.4 % change from baseline. The “Peak-to-peak interval - 3D Mean” value ([1]; 33.33 µM) was 38.9 % change from baseline, the “Area under the curve - 3D Mean” value ([1]; 100 µM) was 97.3 % change from baseline and the “Peak Number—3D Mean” value ([1]; 100 µM) was −34.9 % change from baseline. For the same molecule, the “Peak amplitude - 3D Mean” value ([1]; 100 µM) was 88.6 % change from baseline, the “Peak width - 3D Mean” value ([1]; 100 µM) was 0.0 % change from baseline and the “Peak-to-peak interval - 3D Mean” value ([1]; 100 µM) was −5.5 % change from baseline. The “Area under the curve - 3D Mean” value ([1]; 300 µM) was 72.7 % change from baseline, the “Peak Number—3D Mean” value ([1]; 300 µM) was −68.3 ** % change from baseline and the “Peak amplitude - 3D Mean” value ([1]; 300 µM) was 56.5 % change from baseline. For the same molecule, the “Peak width - 3D Mean” value ([1]; 300 µM) was −12.2 % change from baseline, the “Peak-to-peak interval - 3D Mean” value ([1]; 300 µM) was 75.9 % change from baseline and the “effect on peak number / Ca2+ neuronal oscillations, in words” value [2] was “significantly reduced peak number”. It also gave an activation at 11.11 µM [2, 4] of 38.3%, an activation at 11.11 µM ([2]; read-out: Peak Number—2D Mean) of 2.4% and an activation at 11.11 µM [2, 5] of 11.4%. The activation at 11.11 µM ([2]; read-out: Peak width - 2D Mean) was 26.2%, the activation at 11.11 µM [2, 6] was 28% and the activation at 33.33 µM [2, 4] was 19.9%. It also gave an activation at 33.33 µM ([2]; read-out: Peak Number—2D Mean) of -31.5%, an activation at 33.33 µM [2, 5] of 2.3% and an activation at 33.33 µM ([2]; read-out: Peak width - 2D Mean) of 16.2%. The activation at 33.33 µM [2, 6] was -25.8%, the activation at 100 µM [2, 4] was -1.3% and the activation at 100 µM ([2]; read-out: Peak Number—2D Mean) was -47.2%. For the same molecule, the activation at 100 µM [2, 5] was -17%, the activation at 100 µM ([2]; read-out: Peak width - 2D Mean) was -3.8% and the activation at 100 µM [2, 6] was 11.3%. The activation at 300 µM [2, 4] was -6.1%, the activation at 300 µM ([2]; read-out: Peak Number—2D Mean) was -63.5% and the activation at 300 µM [2, 5] was -12.8%. For the same molecule, the activation at 300 µM ([2]; read-out: Peak width - 2D Mean) was 2.6%, the activation at 300 µM [2, 6] was 45.5% and the “Free Cmax” value [3, 7] was 1000 to 10000 nM. For the same molecule, the “Free Cmax” value [3, 8] was 1000 to 10000 nM.
